Series [1] can be described thus: Human liver microsome stability (t1/2, Clint). A general note: Microsomes from liver hold many membrane-bound enzymes, among them those of drug oxidation.
Series [2] is described as follows: eLogD (lipophilicity; pH 7.4) by HPLC. The series is classed as physicochemical. As for the experimental part: Test compounds were dissolved in DMSO at a concentration of 10 mM and further diluted with methanol:water 1:1. Samples were analyzed using gradient HPLC with three different isocratic mobile phases of 0.25% octanol in methanol (60, 65 and 70%) and 20 mM MOPS buffer (pH 7.4) with decylamine. If needed, (for low E log Doct compounds) the isocratic mobile phases were adjusted to e.g. 40, 45 and 50% methanol. Peaks were detected using a diode array at absorbance 220-320 nm.
Capacity factors data (k′_=(tr−_t0)/t0) obtained at various amounts of methanol were extrapolated to 0% methanol and k′w values are determined using a linear procedure. E log Doct (7.4) is calculated using a series of reference standards with known Log D values. Each experiment was performed in triplicate.

A short description of series [3]: Kinetic solubility (PBS pH 7.4; 4 hr). The series is classed as physicochemical. On the procedure:
The plates were shaken for 4 h at room temperature in an Eppendorf Thermomixer. After incubation, the plates were centrifuged for 20 minutes at 4680 rpm. From the supernatant, 150 μL was transferred to a new 96 well plate and 50 μL DMSO was added to ensure continued dissolution. Samples were measured on LC-UV at injection volumes of 1 and 8 μL. Peak areas were determined and compared to peak areas obtained using calibration curves of the test compounds in DMSO.

For series [4], the target named is T1, CYP2D6 (Homo sapiens, UniProt P10635). The experiment in a line: CYP450 panel inhibition in human liver microsomes, 2D6 (dextromethorphan). Particulars: 10 μM, substrate dextromethorphan.
T1 sequence (P10635 whole entry): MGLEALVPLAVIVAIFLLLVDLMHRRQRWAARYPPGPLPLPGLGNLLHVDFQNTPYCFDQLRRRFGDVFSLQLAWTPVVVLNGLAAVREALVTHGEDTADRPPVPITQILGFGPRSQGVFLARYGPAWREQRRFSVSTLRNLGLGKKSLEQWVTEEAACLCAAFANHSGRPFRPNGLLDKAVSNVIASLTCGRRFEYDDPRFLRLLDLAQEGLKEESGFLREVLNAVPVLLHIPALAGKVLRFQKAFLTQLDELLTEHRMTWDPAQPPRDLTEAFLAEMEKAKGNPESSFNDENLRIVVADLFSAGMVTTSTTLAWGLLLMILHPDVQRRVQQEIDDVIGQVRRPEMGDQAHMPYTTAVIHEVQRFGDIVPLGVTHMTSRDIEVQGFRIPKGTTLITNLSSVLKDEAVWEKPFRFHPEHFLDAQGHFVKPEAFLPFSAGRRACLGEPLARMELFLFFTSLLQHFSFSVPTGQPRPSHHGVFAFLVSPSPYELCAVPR
The subject of series [5] is phospho-ERK in A375 cells. The experiment in a line: Cell-based pERK (pERK:tERK) in A375 cells. To be noted: for pERK/tERK ratio normalized to DMSO: A375 (BRAF p.V600E), 100 nM. On the procedure:
Materials and Methods: A549 or A375 cells were seeded in 6-well plates at an appropriate seeding density on day 0. On day 2 or 3, after checking the health and confluency of cells, the media was aspirated and replaced with 1 mL media containing a predetermined concentration of compound and incubated for 2 hours. After 2 hours, the media was aspirated, and the cells washed 2 times with cold PBS. Cells were lysed on ice, with 50 uL 1×CST lysis buffer +1 mM PMSF for 5 minutes. After 5 minutes, cells were removed using a scraper and transferred to cold 1.5 mL tubes, and centrifuged for 10 min, 4° C., 14,000×g. Supernatant was gently removed and snap frozen in liquid nitrogen. Protein concentration of the lysate was determined using Bradford Reagent (analyzed using SpectraMax M2E) and diluted to 1 mg/mL or pERK or 1.5 mg/mL for pMEK analysis. […] All dilutions were in Milk-free antibody diluent.
A549 or […] cells were treated in duplicate for two hours with compounds at varying concentrations. After two hours, the cells were lysed, snap frozen, and stored at −80° C. After storage, the lysate was quantified with the Bradford assay. Before the lysates were prepared to run on the Jess, the lysates were diluted to 1 mg/mL for pERK analysis and 1.5 mg/mL pMEK analysis using quantitative Western blotting. ERK and MEK phosphorylation levels were estimated by taking the ratio of phospho-protein to total protein and normalizing to the DMSO control.
The nine models are described in Table 16.

Series [6] addresses T2, CYP2C19 (Homo sapiens, UniProt P33261). The experiment in a line: CYP450 panel inhibition in human liver microsomes, 2C19 (mephenytoin). To be noted: 10 μM, substrate mephenytoin.
Series [7] deals with T3, CYP2B6 (Homo sapiens, UniProt P20813).
T3 sequence (P20813 1-491): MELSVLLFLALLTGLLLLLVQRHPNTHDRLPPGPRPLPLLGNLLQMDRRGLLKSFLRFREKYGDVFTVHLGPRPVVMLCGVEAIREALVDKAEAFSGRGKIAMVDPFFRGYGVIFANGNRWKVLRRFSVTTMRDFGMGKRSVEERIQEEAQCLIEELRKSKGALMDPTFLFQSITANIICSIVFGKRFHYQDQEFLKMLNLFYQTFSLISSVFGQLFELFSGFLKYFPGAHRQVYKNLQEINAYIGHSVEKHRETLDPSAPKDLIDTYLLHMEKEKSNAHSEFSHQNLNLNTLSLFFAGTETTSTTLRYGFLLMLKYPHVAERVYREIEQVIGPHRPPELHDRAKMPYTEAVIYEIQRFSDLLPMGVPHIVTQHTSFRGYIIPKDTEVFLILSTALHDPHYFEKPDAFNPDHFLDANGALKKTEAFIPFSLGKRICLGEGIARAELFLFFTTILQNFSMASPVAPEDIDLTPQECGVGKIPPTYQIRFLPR
The experiment in a line: CYP450 panel inhibition in human liver microsomes, 2B6 (bupropion). Particulars: 10 μM, substrate bupropion.

Series [8] is described as follows: Hepatocyte stability, human. The series is classed as in vitro ADME. To be noted: 0.5 million cells/ml; for half-life at 2 μM: human hepatocytes, 120 min; for CLint scaled at 2 μM: human, hepatocytes. On the procedure: (§1) In this study, human, cynomolgus monkey, beagle dog, wistar hannover rat, and balb/c mouse hepatocyle stability was determined.
A short description of series [9]: Caco-2 bidirectional permeability (absorption & efflux). Particulars: human. Background: Caco-2 cells form a polarised layer with tight junctions and transporters.
Series [10] in a line: Hepatocyte stability, cynomolgus monkey. The series is classed as in vitro ADME. To be noted: 0.5 million cells/ml; for half-life at 2 μM: cynomolgus monkey hepatocytes; for CLint scaled at 2 μM: cynomolgus monkey, hepatocytes. As for the experimental part: as §1
Series [11] concerns the target T2, CYP2C19. The experiment in a line: in vitro. Particulars: microsomes, pH 7.4.
The target of series [12] is T3, CYP2B6. The experiment in a line: in vitro. Particulars: microsomes, pH 7.4.
For series [13], the target named is T1, CYP2D6. The experiment in a line: in vitro. Particulars: microsomes, pH 7.4.
Where [14] appears, read: 1 μM, 0.5 mg/ml microsomal protein.
[15] abbreviates: free base (Table 19), read-out: Kinetic Solubility.
Where [16] appears, read: read-out: CLint (L/hr/kg) (converted).
Where [17] appears, read: PBS buffer, pH 7.4, aqueous buffer, kinetic from dmso stock, free base (Table 19), read-out: Kinetic Solubility.
Setting [18] is: human, liver microsomes, pH 7.4.

Values after ≈ are worked out from the molar mass of the structure shown. Read-outs that look alike come from different tables or passages of the source.

T2 sequence (P33261 whole entry): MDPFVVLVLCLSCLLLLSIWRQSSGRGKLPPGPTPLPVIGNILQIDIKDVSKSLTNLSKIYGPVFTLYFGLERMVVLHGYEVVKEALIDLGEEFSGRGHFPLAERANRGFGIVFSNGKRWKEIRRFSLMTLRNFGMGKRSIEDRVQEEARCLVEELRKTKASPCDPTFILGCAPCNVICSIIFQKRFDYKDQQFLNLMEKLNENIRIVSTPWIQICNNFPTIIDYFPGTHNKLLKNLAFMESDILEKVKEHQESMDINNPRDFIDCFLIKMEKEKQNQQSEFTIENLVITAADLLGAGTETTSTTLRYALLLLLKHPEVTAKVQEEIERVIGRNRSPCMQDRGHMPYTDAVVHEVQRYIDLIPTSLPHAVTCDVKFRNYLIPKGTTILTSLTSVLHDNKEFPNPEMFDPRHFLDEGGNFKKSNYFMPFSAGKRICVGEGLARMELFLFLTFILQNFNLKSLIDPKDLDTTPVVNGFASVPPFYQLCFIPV

For `CNS(=O)(=O)Nc1cccc(Cc2c(CN(C)C)c3ccc(OC(=O)N(C)C)cc3oc2=O)c1F` [Compound 9], in series [1] (setting [14]), the “Human Clint” value worked out at 40 µL/min/mg and the “Human Microsome (t1/2 min)” value came to 35 min. Further, the “eLogD (lipophilicity; pH = 7.4)” value in series [2] came to 3.0. Further, the “Kinetic Solubility (PBS pH = 7.4; 4 hr)” value in [3] (PBS pH = 7.4, 4 hr (Table 8)) is reported as more than 80 uM. Also, the kinetic solubility at 4 h in series [3] (setting [15]) was more than 80 µM. On CYP2D6 [4], the “CYP-2D6 (Dextromethorphan) mean percentage CYP inhibition” value was 4.4%. The “A375 pERK:tERK ratio [10 nM; 2 hr]” value in series [5] was 0.71. The “CYP-2C19 (Mephenytoin) mean percentage CYP inhibition” value at CYP2C19 [6] is 17.4%. For the same molecule, the “CYP-2B6 (Bupropion) mean percentage CYP inhibition” value at CYP2B6 [7] is −2.5%.
As for `CNS(=O)(=O)Nc1cccc(Cc2c(CN(C)C)c3cc(F)c(OC(=O)N(C)C)cc3oc2=O)c1F` [Compound 25], the kinetic solubility at 4 h in series [3] (setting [15]) is more than 80 µM. Also, the “CYP-2D6 (Dextromethorphan) mean percentage CYP inhibition” value at CYP2D6 [4] stood at 5.7%. On CYP2C19 [6], the “CYP-2C19 (Mephenytoin) mean percentage CYP inhibition” value was 26.5%. The “CYP-2B6 (Bupropion) mean percentage CYP inhibition” value on CYP2B6 [7] stood at 16.0%.
For `CCS(=O)(=O)Nc1cccc(Cc2c(CN(C)C)c3ccc(OC(=O)N(C)C)cc3oc2=O)c1F` [Compound 120], in that order: more than 80 µM, −1.9%, 14.2% and 13.4%.
In the case of `CNS(=O)(=O)Nc1nccc(Cc2c(CN(C)C)c3ccc(OC(=O)N(C)C)cc3oc2=O)c1F` [Compound 124], the “CYP-2D6 (Dextromethorphan) mean percentage CYP inhibition” value on CYP2D6 [4] turned out to be 10.8%. Further, the “CYP-2C19 (Mephenytoin) mean percentage CYP inhibition” value at CYP2C19 [6] was 50.6%. Besides, the “CYP-2B6 (Bupropion) mean percentage CYP inhibition” value at CYP2B6 [7] came to 25.5%.
For `CNS(=O)(=O)Nc1cccc(Cc2c(CN3CCNCC3)c3cc(F)c(OC(=O)N(C)C)cc3oc2=O)c1F` [Compound 134], in that order: 0.5%, 20.6% and 10.3%.
For `CCCS(=O)(=O)Nc1cccc(Cc2c(CN3CCNCC3)c3cc(Cl)c(OC(=O)N(C)C)cc3oc2=O)c1F` [Compound 167], in that order: 10.1%, 67.1% and 19.8%.
In the case of `CCN(C)Cc1c(Cc2cccc(NS(=O)(=O)NC)c2F)c(=O)oc2cc(OC(=O)N(C)C)c(F)cc12` [Compound 238], the half-life at 2 μM in [8] is 64 min; in [10], 57.2 min. In addition, the CLint scaled at 2 μM in series [8] (setting [16]) was 3.51 L/h/kg; in [8] (read-out: CLint (mL/min/kg)), 3.5 L/h/kg; in series [10] (setting [16]), 5.89 L/h/kg; in series [10] (read-out: CLint (mL/min/kg)), 5.89 L/h/kg. In series [3] (setting [17]), the kinetic solubility at 4 h was determined as 40 µM (≈ 21.5 µg/mL). In addition, the Papp A→B at 2 h, 10 μM in [9] amounted to 14.2 ×10⁻⁶ cm/s. Also, in series [9], the apparent permeability from basolateral to apical (Papp B→A) at 2 h, 10 μM was 13.5 ×10⁻⁶ cm/s. Moreover, in series [9], the efflux ratio at 2 h, 10 μM was 0.956.
For `CCN(C)Cc1c(Cc2cccc(NS(=O)(=O)NC)c2Cl)c(=O)oc2cc(OC(=O)N(C)C)ccc12` [Compound 245, 3-(2-chloro-3-((N-methylsulfamoyl)amino)benzyl)-4-((ethyl(methyl)amino)methyl)-2-oxo-2H-chromen-7-yl dimethylcarbamate], the inhibition at 30 min, 10 µM came to 29% on CYP2C19 [11], 6% on CYP2B6 [12] and 13.7% on CYP2D6 [13]. Besides, the half-life at 2 μM stood at 42.2 min in series [8] and 24.4 min in series [10]. Also, the CLint scaled at 2 μM is 5.32 L/h/kg in series [8] (setting [16]), 5.32 L/h/kg in [8] (read-out: CLint (mL/min/kg)), 13.8 L/h/kg in [10] (setting [16]) and 13.8 L/h/kg in [10] (read-out: CLint (mL/min/kg)). The solubility (kinetic) at 4 h in [3] (setting [17]) worked out at 28 µM (≈ 15 µg/mL). This molecule also displayed a Papp A→B at 2 h, 10 μM in series [9] of 11.9 ×10⁻⁶ cm/s. In series [9], this molecule displayed a Papp B→A at 2 h, 10 μM of 6.87 ×10⁻⁶ cm/s. Also, the efflux ratio at 2 h, 10 μM in series [9] was 0.578.
In the case of `CNS(=O)(=O)Nc1cccc(Cc2c(CN(C)C)c3ccc(OC(=O)N(C)C)cc3oc2=O)c1Cl` [Compound 274, 3-(2-chloro-3-((N-methylsulfamoyl)amino)benzyl)-4-((dimethylamino)methyl)-2-oxo-2H-chromen-7-yl dimethylcarbamate], the inhibition at 30 min, 10 µM is 15.1% on CYP2C19 [11], -0.6% against CYP2B6 [12] and 2.5% on CYP2D6 [13]. Besides, the half-life at 2 μM stood at 112 min in [8] and 59.1 min in series [10]. Besides, the CLint scaled at 2 μM in series [8] (setting [16]) is 2.01 L/h/kg; in series [8] (read-out: CLint (mL/min/kg)) it was 2.01 L/h/kg; in [10] (setting [16]) it was 5.7 L/h/kg; in series [10] (read-out: CLint (mL/min/kg)), 5.69 L/h/kg. Moreover, the solubility (kinetic) at 4 h in [3] (setting [17]) was 78 µM (≈ 40.8 µg/mL). Further, in series [5], the “pERK/tERK ratio normalized to DMSO” value came to 0.477. The Papp A→B at 2 h, 10 μM in series [9] worked out at 16.8 ×10⁻⁶ cm/s. In [9], the Papp B→A at 2 h, 10 μM worked out at 8.95 ×10⁻⁶ cm/s. In addition, in [9], the efflux ratio at 2 h, 10 μM is 0.533.
The molecule `Cn1cnc2c(F)c(Nc3ccc(Br)cc3Cl)c(C(=O)NOCCO)cc21` [Reference-1, Selumetinib] yielded a half-life at 1 μM in series [1] (setting [18]) of more than 90 min. This molecule also returned a chromatographic logD in series [2] of 3.6. For the same molecule, in series [3] (PBS buffer, aqueous buffer, kinetic from dmso stock, PBS pH = 7.4, 4 hr (Table 7), read-out: Kinetic Solubility (PBS pH = 7.4; 4 hr)), the solubility (kinetic) at 4 h is 36 µM (≈ 16.5 µg/mL). Besides, in series [5], the “A375 pERK:tERK ratio [10 nM; 2 hr]” value was determined as 0.59 and the “pERK/tERK ratio normalized to DMSO” value was found to be 0.199.
The molecule `CNS(=O)(=O)Nc1nccc(Cc2c(C)c3ccc(Oc4ncccn4)cc3oc2=O)c1F` [Reference-2, reference compound] showed a microsomal CLint at 1 μM in series [1] (setting [18]) of less than 15 µL/min/mg. The same molecule registered a chromatographic logD in series [2] of 3.6.

For orientation: solubility (kinetic) means solubility judged after dilution from a stock solution rather than from solid. As a reminder, the half-life is the time needed for the level to fall by half in the phase considered. As a reminder, the Papp A→B is how fast a substance crosses the layer from the apical side. What is called Papp B→A is the apparent permeability from the basolateral to the apical side of a cell layer. The term efflux ratio denotes the permeability from basolateral to apical divided by that in the opposite direction, in the common usage. In general, inhibition refers to the change of the read-out against control, counted positive when it falls. What is called chromatographic logD is a lipophilicity value derived from retention on a column. Usually microsomal CLint stands for the rate of metabolic loss divided by the concentration.

The record behind these values is US20250179057A1, “MEK IMMUNE ONCOLOGY INHIBITORS AND THERAPEUTIC USES THEREOF” (Immuneering Corporation, priority 2022, published 2025).
